Three compounds from ChEMBL document CHEMBL3992494, “Amaryllidaceae alkaloids with new framework types from Zephyranthes candida as potent acetylcholinesterase inhibitors” (Eur J Med Chem, 2017) can be followed below.

In test [1] the target is Acetylcholinesterase (Electrophorus electricus) (UniProt O42275). Kind of test: Inhibition of electric eel AChE at 200 uM using acetylthiocholine iodide as substrate measured every minute for fifteen minutes by Ellman's method. On the technique in general: Ellman's reagent forms a yellow product with free thiols.
Test [2] addresses Acetylcholinesterase (Electrophorus electricus, UniProt O42275). Kind of test: Inhibition of electric eel AChE using acetylthiocholine iodide as substrate measured every minute for fifteen minutes by Ellman's method.

The source made the active and inactive calls. The calls are words filed in the database; no cut-off is given here.

Broadly, the IC50 is the concentration that gives 50% inhibition. The low end stands for greater potency in that assay, the high end for weaker potency in that assay.

Chain of Acetylcholinesterase (Electrophorus electricus) (O42275 24-633 limits assumed): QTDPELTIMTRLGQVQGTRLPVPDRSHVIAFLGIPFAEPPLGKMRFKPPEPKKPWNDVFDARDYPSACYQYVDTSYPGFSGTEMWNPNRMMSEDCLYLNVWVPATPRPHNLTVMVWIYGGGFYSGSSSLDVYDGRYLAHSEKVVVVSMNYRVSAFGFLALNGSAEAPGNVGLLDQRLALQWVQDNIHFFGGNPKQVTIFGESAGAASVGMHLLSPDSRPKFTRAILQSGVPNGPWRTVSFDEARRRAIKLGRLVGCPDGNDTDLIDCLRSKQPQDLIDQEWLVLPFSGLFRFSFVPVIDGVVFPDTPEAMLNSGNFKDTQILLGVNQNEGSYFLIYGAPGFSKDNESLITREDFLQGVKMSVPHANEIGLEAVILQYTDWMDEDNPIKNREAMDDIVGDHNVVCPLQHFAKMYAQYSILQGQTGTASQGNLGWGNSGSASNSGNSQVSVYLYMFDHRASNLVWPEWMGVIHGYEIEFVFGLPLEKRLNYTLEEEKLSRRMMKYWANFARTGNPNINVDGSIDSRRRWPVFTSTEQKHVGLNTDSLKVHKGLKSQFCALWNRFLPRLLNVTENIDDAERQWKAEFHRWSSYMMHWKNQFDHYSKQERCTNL
Chain of Acetylcholinesterase (O42275 whole entry): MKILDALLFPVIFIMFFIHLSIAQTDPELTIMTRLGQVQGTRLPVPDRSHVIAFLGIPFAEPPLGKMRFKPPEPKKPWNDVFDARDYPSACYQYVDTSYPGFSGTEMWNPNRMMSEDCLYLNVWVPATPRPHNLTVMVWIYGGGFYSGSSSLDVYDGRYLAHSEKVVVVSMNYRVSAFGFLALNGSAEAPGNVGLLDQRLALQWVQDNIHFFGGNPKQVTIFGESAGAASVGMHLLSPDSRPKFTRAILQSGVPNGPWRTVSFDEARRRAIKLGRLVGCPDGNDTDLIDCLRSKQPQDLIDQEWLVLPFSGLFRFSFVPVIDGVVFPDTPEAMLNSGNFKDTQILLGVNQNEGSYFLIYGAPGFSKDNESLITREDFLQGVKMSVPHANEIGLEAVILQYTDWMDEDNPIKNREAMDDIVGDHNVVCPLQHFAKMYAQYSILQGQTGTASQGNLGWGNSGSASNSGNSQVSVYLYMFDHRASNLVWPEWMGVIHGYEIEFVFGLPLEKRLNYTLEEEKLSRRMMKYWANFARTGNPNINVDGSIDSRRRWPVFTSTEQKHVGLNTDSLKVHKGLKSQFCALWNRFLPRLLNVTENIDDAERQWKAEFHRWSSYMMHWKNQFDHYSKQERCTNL

For the compound `COc1cc([C@@H]2[C@H](O)CC=C3CCN(C)[C@H]32)cc(OC)c1OC`, in test [1], the inhibition entry is “inactive”.

`CNc1ccc(COC)cc1-c1cc2c(cc1CO)OCO2` showed an IC50 in test [2] of 8.82 µM. This lies in the single-digit micromolar range.

With `CO[C@H]1C=C[C@@]2(c3ccc(O)cc3)CCN[C@H]2C1`, the inhibition result in test [1] was “inactive”.
